Columns and labels:
CNGA2RE:A4RE:B1bRE = target: T1, CNGA2RE:A4RE:B1bRE (Rattus norvegicus, UniProt A0A8I5ZN27+Q00195+Q64359, R1106E/R430E/R538E); test: Channel activation during confocal patch-clamp fluorometry; assay type: biochemical; details: 10 μM fcGMP; all four binding sites disabled
T1 construct: expressed in transfected cells; host or cells: Xenopus laevis oocytes (cRNA injection), excised inside-out patches
Experimental: (§1) To verify the hypothesis that the CNGB1b subunit in CNGA2:A4:B1b channels binds cyclic nucleotides, we coexpressed CNGB1b with CNGA4RE and either CNGA2RE or CNGA2TM and measured ligand binding in the presence of 10 μM fcGMP. […] To verify the specificity of the binding to the CNGB1b subunit in these heterotetrameric channels, we coexpressed the CNGB1bRE subunit with CNGA2RE and CNGA4RE.
(§2) Figure 2 In a CNGA2:A4 background the CNGB1b subunit binds both fcGMP and fHcAMP and activates the channel. (a) Binding of fcGMP to the CNGB1b subunit evokes channel activation. Binding of fcGMP to CNGB1b was observed when coexpressed with either CNGA2RE:A4RE or CNGA2TM:A4RE (upper diagram). […] (b) Binding of fHcAMP to CNGB1b was observed when coexpressed with both CNGA2RE and CNGA4RE. When disabling the binding domain of CNGB1b, the fluorescence intensity was nearly abolished. Correspondingly, CNGA2RE:A4RE:B1b channels were activated by the ligand only when the CNGB1b binding site was available.
(§3) Patch-clamp experiments were performed using an Axopatch 200B amplifier (Molecular Devices LLC, CA, U.S.A.) in the inside-out configuration. The patch pipettes for recording of macroscopic currents were pulled from borosilicate glass tubing (outer diameter 2.0 mm, inner diameter 1.0 mm; Hilgenberg GmbH, Germany). The initial resistance was 0.7–1.3 MΩ. The patches were formed as pushed inside-out patches. […] Cyclic nucleotide concentration jumps were performed using a double-barreled glass pipette mounted on a piezo-driven device. Intracellular (bath) and extracellular (pipette) solutions contained (mM) 150 KCl, 1 EGTA, 5 Hepes, pH = 7.4 with KOH. […] Currents in the absence of the cyclic nucleotide were subtracted. All patches included in this study were first tested for channel expression in the presence of a saturating ligand concentration. Only patches with large current, i.e. a large number of channels, were included in our statistics. The currents were measured at +10 mV or, if mentioned, at +100 mV.
(§4) The ligand binding was measured in macropatches by patch-clamp fluorometry[41][42] combined with confocal microscopy. […] Recordings were performed with an LSM 510 or 710 confocal microscope (Zeiss, Jena, Germany) and were triggered by the ISO3 software (MFK, Niedernhausen, Germany). To distinguish between the fluorescence of the unbound ligands from that of the bound ligands, a second dye, DY647 (Dyomics, Jena, Germany), was added to the bath solution. The 543-nm and 633-nm lines of a He-Ne laser were used to excite fcAMP/fcGMP and DY647, respectively. The method of confocal patch-clamp fluorometry has been described in detail previously.

CNGA2TM:A4RE:B1bRE = target: T2, CNGA2TM:A4RE:B1bRE (Rattus norvegicus, UniProt A0A8I5ZN27+Q00195+Q64359, R1106E/R430E/T539M); test: as above; assay type: biochemical; details: 10 μM fcGMP; all four binding sites disabled
T2 construct: expressed in transfected cells; host or cells: Xenopus laevis oocytes (cRNA injection), excised inside-out patches
T2 sequence (Q00195 whole entry T539M): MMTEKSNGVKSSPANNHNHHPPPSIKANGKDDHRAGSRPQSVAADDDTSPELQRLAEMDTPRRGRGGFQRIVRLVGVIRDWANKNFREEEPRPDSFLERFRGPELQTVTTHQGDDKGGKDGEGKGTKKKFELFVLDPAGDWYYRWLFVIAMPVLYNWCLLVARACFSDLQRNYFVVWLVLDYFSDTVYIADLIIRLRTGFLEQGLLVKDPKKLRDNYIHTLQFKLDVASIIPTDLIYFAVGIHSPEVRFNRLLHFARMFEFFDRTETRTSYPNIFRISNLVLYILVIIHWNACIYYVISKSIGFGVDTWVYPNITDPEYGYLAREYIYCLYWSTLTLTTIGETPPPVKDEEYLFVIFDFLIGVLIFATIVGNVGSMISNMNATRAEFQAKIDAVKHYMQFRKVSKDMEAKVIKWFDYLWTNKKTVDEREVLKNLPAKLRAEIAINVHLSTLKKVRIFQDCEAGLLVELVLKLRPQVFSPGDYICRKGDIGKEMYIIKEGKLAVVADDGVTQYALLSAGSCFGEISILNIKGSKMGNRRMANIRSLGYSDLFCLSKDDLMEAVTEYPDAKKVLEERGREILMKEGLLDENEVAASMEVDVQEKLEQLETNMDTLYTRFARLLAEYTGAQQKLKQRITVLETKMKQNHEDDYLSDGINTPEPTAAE
T2 sequence (Q64359 whole entry R430E): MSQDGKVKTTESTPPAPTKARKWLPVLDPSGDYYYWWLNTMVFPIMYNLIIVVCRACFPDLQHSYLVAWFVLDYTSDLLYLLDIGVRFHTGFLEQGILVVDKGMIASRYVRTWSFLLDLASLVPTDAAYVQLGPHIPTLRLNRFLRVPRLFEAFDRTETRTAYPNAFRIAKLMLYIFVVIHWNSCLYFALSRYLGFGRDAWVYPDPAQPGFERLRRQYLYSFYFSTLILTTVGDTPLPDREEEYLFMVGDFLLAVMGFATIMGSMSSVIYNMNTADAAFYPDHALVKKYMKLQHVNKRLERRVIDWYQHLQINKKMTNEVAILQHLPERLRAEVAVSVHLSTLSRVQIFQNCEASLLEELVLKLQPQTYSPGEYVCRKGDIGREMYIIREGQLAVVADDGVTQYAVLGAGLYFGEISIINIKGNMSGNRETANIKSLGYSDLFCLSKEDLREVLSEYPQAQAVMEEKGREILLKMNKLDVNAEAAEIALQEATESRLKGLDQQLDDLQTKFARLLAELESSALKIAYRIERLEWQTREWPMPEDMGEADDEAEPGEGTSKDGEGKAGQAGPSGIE
T2 sequence (A0A8I5ZN27 1-858 isoform A0A8I5ZN27-2 R657E): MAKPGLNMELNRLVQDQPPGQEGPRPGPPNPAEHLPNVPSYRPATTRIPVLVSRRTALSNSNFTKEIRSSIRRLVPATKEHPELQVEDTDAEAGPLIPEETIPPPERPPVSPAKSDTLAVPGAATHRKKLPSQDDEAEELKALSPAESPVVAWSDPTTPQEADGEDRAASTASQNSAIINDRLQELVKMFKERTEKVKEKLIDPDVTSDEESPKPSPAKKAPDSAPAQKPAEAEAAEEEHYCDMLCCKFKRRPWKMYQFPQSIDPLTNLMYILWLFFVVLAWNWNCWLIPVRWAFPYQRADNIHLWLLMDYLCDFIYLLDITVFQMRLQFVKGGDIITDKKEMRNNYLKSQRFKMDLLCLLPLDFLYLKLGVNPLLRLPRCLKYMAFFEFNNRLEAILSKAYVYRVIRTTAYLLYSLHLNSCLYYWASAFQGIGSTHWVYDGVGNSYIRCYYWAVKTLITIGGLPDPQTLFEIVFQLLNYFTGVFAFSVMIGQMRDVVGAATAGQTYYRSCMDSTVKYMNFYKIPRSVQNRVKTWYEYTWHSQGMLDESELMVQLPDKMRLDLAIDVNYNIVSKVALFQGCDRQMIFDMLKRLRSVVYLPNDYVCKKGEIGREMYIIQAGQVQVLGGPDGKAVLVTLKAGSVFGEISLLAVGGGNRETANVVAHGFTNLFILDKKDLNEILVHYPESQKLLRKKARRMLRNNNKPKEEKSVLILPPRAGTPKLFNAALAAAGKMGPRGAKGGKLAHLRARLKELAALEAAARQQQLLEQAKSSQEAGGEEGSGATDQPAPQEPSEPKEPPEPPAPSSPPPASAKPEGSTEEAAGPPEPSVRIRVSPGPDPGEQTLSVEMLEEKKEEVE
Experimental: as §1, §2, §3, §4

CNGA2TM:A4RE:B1b = target: T3, CNGA2TM:A4RE:B1b (Rattus norvegicus, UniProt A0A8I5ZN27+Q00195+Q64359, R430E/T539M); test: as above; assay type: biochemical; details: 10 μM fcGMP; normalized to current at 4 mM cGMP
T3 construct: expressed in transfected cells; host or cells: Xenopus laevis oocytes (cRNA injection), excised inside-out patches
T3 sequence (Q00195 whole entry T539M): as the sequence (Q00195 whole entry T539M) above
T3 sequence (Q64359 whole entry R430E): as the sequence (Q64359 whole entry R430E) above
T3 sequence (A0A8I5ZN27 1-858 isoform A0A8I5ZN27-2, stated change not applied): as the sequence (A0A8I5ZN27 1-858 isoform A0A8I5ZN27-2 R657E) above, with E657R counted along it
Experimental: as §1, §2, §3, §4

CNGA2TM:A4RE = system: CNGA2TM:A4RE; design: method as in Nache et al., 2012; key: +: ligand binding to the respective modulatory subunits was either observed or not; −: ligand binding to the respective modulatory subunits was either observed or not; details: 10 μM; construct CNGA2TM:A4RE; ref Nache et al., 2012; cited from earlier work
CNGA2:A4:B1b channels = target: T4, CNGA2:A4:B1b channels (Rattus norvegicus, UniProt A0A8I5ZN27+Q00195+Q64359); test: Activation and deactivation time courses after fast concentration jumps; assay type: biochemical; details: +10 mV, monoexponential fit
T4 construct: expressed in transfected cells; host or cells: Xenopus laevis oocytes (cRNA injection 2:1:1), excised inside-out patches
T4 sequence (Q00195 whole entry): as the sequence (Q00195 whole entry T539M) above, with M539T counted along it
T4 sequence (Q64359 whole entry): as the sequence (Q64359 whole entry R430E) above, with E430R counted along it
T4 sequence (A0A8I5ZN27 1-858 isoform A0A8I5ZN27-2): as the sequence (A0A8I5ZN27 1-858 isoform A0A8I5ZN27-2 R657E) above, with E657R counted along it
Experimental: To characterize the contribution of each subunit to the kinetics of channel gating, we also studied activation and deactivation time courses for CNGA2:A4:B1b, CNGA2, CNGA2RE:A4RE:B1b and CNGA2RE:A4:B1b RE channels. Fast concentration jumps from zero to 10 μM cGMP and back to zero were applied with the help of a piezo-driven switch pipette. Activation (Fig. 4a) and deactivation (Fig. 4b) time courses were fitted with a single exponential or the sum of two exponential functions in case of the CNGA2RE:A4RE:B1b channel. The obtained time constants are shown in bar graphs below the traces. In case of the biexponential time courses a mean time constant was obtained according to equation (S1) (Supplementary Information). CNGA2RE:A4RE:B1b channel activation triggered by CNGB1b only is the slowest, followed by that of CNGA4 only in CNGA2RE:A4:B1bRE channels and homotetrameric CNGA2 channels.
Figure 4 Effects of the CNGB1b and CNGA4 subunit on the kinetics of channel activation and deactivation. […]
Patch-clamp experiments were performed using an Axopatch 200B amplifier (Molecular Devices LLC, CA, U.S.A.) in the inside-out configuration. […] The currents were measured at +10 mV or, if mentioned, at +100 mV.

T1 sequence (Q00195 whole entry R538E): as the sequence (Q00195 whole entry T539M) above, with R538E, M539T counted along it
T1 sequence (Q64359 whole entry R430E): as the sequence (Q64359 whole entry R430E) above
T1 sequence (A0A8I5ZN27 1-858 isoform A0A8I5ZN27-2 R657E): as the sequence (A0A8I5ZN27 1-858 isoform A0A8I5ZN27-2 R657E) above

Compound | activation (CNGA2RE:A4RE:B1bRE) | activation (CNGA2TM:A4RE:B1bRE) | activation (I/Imax) (CNGA2TM:A4RE:B1b) | Ligand binding to CNGA4 (CNGA2TM:A4RE) | deactivation time constant (CNGA2:A4:B1b channels; concentration jump from 10 μM back to zero) | activation time constant (CNGA2:A4:B1b channels; concentration jump from zero to 10 μM)
8-[DY-547]-AET-cGMP [fcGMP] | did not trigger activation | did not trigger activation | 1.7 ± 0.6% | − |  | 
Nc1nc2c(ncn2[C@@H]2O[C@@H]3COP(=O)(O)O[C@H]3[C@H]2O)c(=O)[nH]1 [cGMP] |  |  |  |  | ~ 120 ms | ~ 17 ms
